Data on twelve compounds can be found in paper PMC4893628, “Chalcone-based Selective Inhibitors of a C4 Plant Key Enzyme as Novel Potential Herbicides” (Scientific Reports, 2016).

Test [1] concerns human breast cancer cells. Set-up: method as in PMID 11720850. The following applies: higher; cited from earlier work.
In test [2] the target is T1, wild-type C4 PEPC from F. trinervia (Flaveria trinervia, UniProt P30694).
T1 construct: the full-length ppcA gene of PEPC from F. trinervia (EMBL-Bank X61304); made in house; host or cells: Escherichia coli BL21(DE3)
T1 sequence (P30694 1-966): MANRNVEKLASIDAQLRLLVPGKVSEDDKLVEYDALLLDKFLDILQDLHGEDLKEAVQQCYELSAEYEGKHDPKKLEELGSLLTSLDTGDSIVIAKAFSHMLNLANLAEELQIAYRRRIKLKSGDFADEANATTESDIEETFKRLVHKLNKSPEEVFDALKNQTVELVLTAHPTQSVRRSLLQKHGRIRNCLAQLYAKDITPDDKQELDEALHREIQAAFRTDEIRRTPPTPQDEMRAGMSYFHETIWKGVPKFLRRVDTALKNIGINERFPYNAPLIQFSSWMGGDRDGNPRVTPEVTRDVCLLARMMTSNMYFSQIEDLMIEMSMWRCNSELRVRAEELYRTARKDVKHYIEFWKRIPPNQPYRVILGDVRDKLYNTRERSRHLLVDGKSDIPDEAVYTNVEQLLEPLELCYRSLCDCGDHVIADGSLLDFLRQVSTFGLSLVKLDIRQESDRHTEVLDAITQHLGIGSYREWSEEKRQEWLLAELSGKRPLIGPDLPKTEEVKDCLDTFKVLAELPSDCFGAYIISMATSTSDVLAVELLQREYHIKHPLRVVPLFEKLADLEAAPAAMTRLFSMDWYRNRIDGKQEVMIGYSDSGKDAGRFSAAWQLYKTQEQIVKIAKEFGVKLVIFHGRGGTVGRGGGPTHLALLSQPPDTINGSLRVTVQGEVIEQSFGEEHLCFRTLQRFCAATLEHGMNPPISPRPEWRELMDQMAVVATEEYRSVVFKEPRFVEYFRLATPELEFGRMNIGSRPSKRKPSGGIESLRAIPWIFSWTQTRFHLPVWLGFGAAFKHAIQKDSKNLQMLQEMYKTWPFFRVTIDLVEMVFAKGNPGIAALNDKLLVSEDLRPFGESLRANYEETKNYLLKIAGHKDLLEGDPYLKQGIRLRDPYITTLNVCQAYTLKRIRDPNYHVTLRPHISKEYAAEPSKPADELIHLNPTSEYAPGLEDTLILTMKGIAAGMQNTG
Put plainly: Isothermal titration calorimetry, wild-type C4 PEPC. It is filed as binding. The protocol:
(§1) The binding affinities between small molecule compounds and PEPC enzymes were measured using a MicroCal iTC200 calorimeter (GE Healthcare). 18 injections (2 μl each) of 200 μM compound were injected into a sample cell containing 20 uM PEPC at 25 °C. The buffer of the compounds and the enzymes contained 50 mM Tris/HCl pH 7.5, 150 mM NaCl, 10 mM MgCl2. The data were analyzed with one-site-binding fitting using Origin software (MicroCal Inc.) to calculate the dissociation constant (Kd) of the small molecule inhibitors.
For orientation: In ITC the heat of successive injections is recorded.

The target in test [3] is C4 PEPC mutant G884R (Flaveria trinervia, UniProt P30694, G884R). Put plainly: Isothermal titration calorimetry, mutant G884R. The class given is binding. The method, then: as §1
Test [4] concerns the target T2, F. pringlei PEPC (Flaveria pringlei, UniProt Q01647).
T2 construct: the full-length ppcA gene of PEPC from F. trinervia (EMBL-Bank X61304) and F. pringlei (EMBL-Bank Z48966) were cloned in pETEV16b; made in house; host or cells: Escherichia coli BL21-Gold(DE3)
T2 sequence (Q01647 1-967): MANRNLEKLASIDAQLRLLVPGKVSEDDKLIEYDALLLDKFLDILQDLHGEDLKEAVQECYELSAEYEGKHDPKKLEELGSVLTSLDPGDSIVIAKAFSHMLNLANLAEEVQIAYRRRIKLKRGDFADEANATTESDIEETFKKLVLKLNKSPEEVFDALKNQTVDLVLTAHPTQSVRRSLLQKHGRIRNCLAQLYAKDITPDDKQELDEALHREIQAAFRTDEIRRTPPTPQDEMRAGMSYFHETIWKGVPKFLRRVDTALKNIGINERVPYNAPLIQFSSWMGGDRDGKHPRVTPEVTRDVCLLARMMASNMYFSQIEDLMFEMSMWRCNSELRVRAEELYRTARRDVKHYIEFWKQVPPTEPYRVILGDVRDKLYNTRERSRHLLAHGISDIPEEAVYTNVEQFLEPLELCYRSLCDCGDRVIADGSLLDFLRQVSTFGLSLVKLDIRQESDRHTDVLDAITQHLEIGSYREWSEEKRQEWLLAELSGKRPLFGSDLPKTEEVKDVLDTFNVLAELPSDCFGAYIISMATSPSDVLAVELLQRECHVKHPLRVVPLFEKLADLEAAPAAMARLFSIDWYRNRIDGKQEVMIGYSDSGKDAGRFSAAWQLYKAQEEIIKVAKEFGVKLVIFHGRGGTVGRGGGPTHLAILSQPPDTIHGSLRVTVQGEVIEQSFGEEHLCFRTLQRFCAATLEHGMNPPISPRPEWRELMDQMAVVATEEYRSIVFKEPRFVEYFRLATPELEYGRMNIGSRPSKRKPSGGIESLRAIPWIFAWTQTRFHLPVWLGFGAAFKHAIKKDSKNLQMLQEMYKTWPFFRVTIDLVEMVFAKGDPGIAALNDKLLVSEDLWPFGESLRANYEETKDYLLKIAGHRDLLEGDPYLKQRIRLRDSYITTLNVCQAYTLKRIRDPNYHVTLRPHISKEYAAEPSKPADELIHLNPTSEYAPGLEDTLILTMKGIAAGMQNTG
Description: PEPC coupled spectrophotometric assay, C3 PEPC. It is filed as biochemical. The method, then:
The IC50 values of small molecule compounds on F. pringlei and F. trinervia PEPCs were determined using PEPC coupled spectrophotometric assay. The amount of NADH oxidized by NADH-malate dehydrogenase was measured by the decrease in absorbance at 340 nm in a Beckman DU-800 spectrophotometer, thus the value is in proportion to the corresponding substrate conversion of the enzyme. The reaction mixture included the PEPC enzymes (0.05 U), NADH (150 μM), malate dehydrogenase (2 U) and different concentration of compounds in the buffer containing 50 mM HEPES/KOH pH 7.5, 10 mM MgCl2, 10 mM KHCO3 in a final volume of 600 μl at 25 °C. The reactions were started by adding two folds of the Km value of PEP for each enzyme. The data were analyzed using GraFit (Erithacus Software, UK).

Where [5] appears, read: read-out: IC50 F. pringlei PEPC.

SMILES strings stand for the structures. Read-outs that look alike come from different tables or passages of the source.

Sequence of C4 PEPC mutant G884R (P30694 whole entry G884R): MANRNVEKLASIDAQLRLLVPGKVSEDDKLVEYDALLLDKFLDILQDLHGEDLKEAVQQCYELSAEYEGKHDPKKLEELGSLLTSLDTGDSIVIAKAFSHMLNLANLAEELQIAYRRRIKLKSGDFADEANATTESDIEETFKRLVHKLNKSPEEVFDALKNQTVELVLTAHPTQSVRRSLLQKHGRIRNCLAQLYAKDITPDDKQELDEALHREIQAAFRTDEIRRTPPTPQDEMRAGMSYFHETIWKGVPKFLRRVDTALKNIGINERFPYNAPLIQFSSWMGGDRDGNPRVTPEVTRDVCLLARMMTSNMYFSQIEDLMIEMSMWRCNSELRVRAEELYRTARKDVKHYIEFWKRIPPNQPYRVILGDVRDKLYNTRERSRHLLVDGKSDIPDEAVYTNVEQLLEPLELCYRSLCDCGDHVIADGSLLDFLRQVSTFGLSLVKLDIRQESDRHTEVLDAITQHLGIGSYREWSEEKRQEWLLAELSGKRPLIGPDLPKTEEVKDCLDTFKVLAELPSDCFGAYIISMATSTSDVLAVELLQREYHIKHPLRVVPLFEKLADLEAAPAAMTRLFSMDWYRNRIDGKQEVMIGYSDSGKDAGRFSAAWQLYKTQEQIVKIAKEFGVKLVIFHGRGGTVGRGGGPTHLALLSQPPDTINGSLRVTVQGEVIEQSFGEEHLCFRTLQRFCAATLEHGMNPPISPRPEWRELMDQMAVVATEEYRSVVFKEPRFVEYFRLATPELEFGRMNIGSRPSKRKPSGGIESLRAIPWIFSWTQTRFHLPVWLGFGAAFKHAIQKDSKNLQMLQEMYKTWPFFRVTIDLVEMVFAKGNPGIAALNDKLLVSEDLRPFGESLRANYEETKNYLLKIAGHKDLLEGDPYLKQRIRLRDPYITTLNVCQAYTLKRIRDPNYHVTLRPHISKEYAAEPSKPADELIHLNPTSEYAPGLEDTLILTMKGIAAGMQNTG

For the compound `O=C(/C=C/c1ccccc1)c1ccc(O)c(O)c1O` [Compound 10, 2′,3′,4′-Trihydroxychalcone], the “antiproliferative IC50 relative to IC50 for inhibition of C4 PEPC” value in test [1] is ~ 5 fold. Regarding `O=C(/C=C/c1ccc(O)c(O)c1)c1ccc(O)cc1O` [Compound 8, 2′,4′,3,4-Tetrahydroxy-chalcone], the Kd (as a rule, the constant that tells how readily two partners part at equilibrium) is 0.38 µM in test [2] and 8.6 µM in test [3].

As for `O=C(/C=C/c1ccc(O)c(O)c1)c1c(O)cc(O)cc1O` [Compound 11, 2′,4′,6′,3,4-Pentahydroxy-chalcone], in test [4] (setting [5]), the IC50 (commonly the point on the concentration scale where inhibition reaches its midpoint) came to 8.2 ± 0.3 µM.

In the case of `O=C(/C=C/c1ccccc1)c1ccccc1` [Compound 1, trans-Chalcone], half-maximal inhibition in test [4] (IC50 F. pringlei PEPC) (IC50) required 119 ± 4.6 µM. For the compound `O=C(/C=C/c1ccccc1O)c1ccc(O)cc1O` [Compound 7, 2′,4′,2-Trihydroxychalcone], the half-maximal inhibitory concentration (IC50) in test [4] (setting [5]) is 64.4 ± 1.1 µM. The compound `O=C(/C=C/c1ccc(O)c(O)c1)c1ccc(O)c(O)c1O` [Compound 12, 2′,3′,4′,3,4-Pentahydroxy-chalcone] gave an IC50 in test [4] (IC50 F. pringlei PEPC) of 26.8 ± 3.5 µM. For the same compound, the values for the Kd in test [2] and in test [3] were 0.26 µM and 5.4 µM, respectively. Moreover, in test [2] (ITC), the “weaker Kd at 0.5 mM aspartate in comparison to no aspartate” value was ~ 5 fold. Turning to `O=C(/C=C/c1ccccc1)c1ccc(O)cc1O` [Compound 4, 2′,4′-Dihydroxychalcone], the IC50 in test [4] (setting [5]) turned out to be 53 ± 1.1 µM. In test [4] (IC50 F. pringlei PEPC), `O=C(/C=C/c1ccc(O)cc1)c1ccc(O)cc1O` [Compound 6, 2′,4′,4-Trihydroxychalcone] gave an IC50 of 57.8 ± 1.1 µM. The same measure, in the same setting: under `O=C(/C=C/c1ccccc1)c1ccccc1O` [Compound 2, 2′-Hydroxychalcone] stands 76.3 ± 1.9 µM. `O=C(/C=C/c1ccc(O)cc1)c1ccccc1O` [Compound 3, 2′,4-Dihydroxychalcone]: the half-maximal inhibitory concentration (IC50) in test [4] (setting [5]) amounted to 64.2 ± 2.8 µM.

For the compound `O=C(/C=C/c1ccccc1)c1cc(O)ccc1O` [Compound 5, 2′,5′-Dihydroxychalcone], the IC50 in test [4] (setting [5]) is 105 ± 4.6 µM.

Consider `O=C(/C=C/c1cc(O)c(O)c(O)c1)c1ccc(O)cc1O` [Compound 9, 2′,4′,3,4,5-Pentahydroxychalcone], for which the Kd stood at 0.46 µM in test [2] (ITC, wild-type (wtFt), no aspartate, read-out: Kd) and 4.8 µM in test [3].
